Results: patent US20120148647A1, “Photoresponsive Sunscreen Composition” (Blueshift Pharma GmbH, priority 2009, published 2012)
Like-named read-outs stand apart in the source and are kept apart here. Blank lines part the entries; values can stand above or below the compound they belong to.

How the values were obtained:
[1] = UV absorbance spectra in protonated and deprotonated form (different pH, or before and after HCl); assay type: physicochemical; conditions: FIGS. 1 to 4
From the text: Methods to determine if a given sunscreen agent measurably changes its absorbance of UV radiation upon protonation or deprotonation will be readily available to the skilled person, but include a method summarised by the following steps. First, identify a suitable solvent for said sunscreen agent. Such a solvent may be hydrophilic (eg water or glycerine) organic/protic (eg ethanol, isopropanol or octanol), organic/polar aprotic (eg DMSO, acetonitrile or dichloromethane) or organic/unipolar (eg hexane, hexadecane or diethylether). Second, record the UV-Visible (200 nm-800 nm) absorbance spectra of a solution of the sunscreen agent using a suitable photospectrometer (such as a Beckmann DU-640 Spectrometer as described in the examples herein). Third, take an aliquot of the sunscreen UV filter solution and add a strong acid (eg trifluoroacetic acid, or hydrochloric acid, or perchloric acid) and record its UV-Visible absorbance spectra. Neutralize with a base (see next step) to check for reversibility and record the UV-Visible absorbance spectra again. Fourth, take another aliquot of the sunscreen UV filter solution and add a strong base (eg NaOH, KOH, Triethylamine, Tris(hydroxymethyl)aminomethane (TRIS)) and record its UV-Visible absorbance spectra. Neutralize with an acid (see previous step) to check for reversibility and record the resulting UV-Visible absorbance spectra. Fifth, repeat the above steps with (a) more than one acid, (b) more than one base and (c) more than one solvent to exclude artifacts from specific UV-filter-ion interactions, or specific UV-filter-solvent interactions. Conclusion: measureable changes in UV absorbance that are observed in one or more of such repeat experiments for a give sunscreen agent identify that such sunscreen agent is a suitable sunscreen agent for use in the context of the present invention.
The pH was adjusted with NaOH/HCl in aqueous solution.

[2] = Predicted SPF calculated from absorption spectra; assay type: physicochemical
From the text: Predicted SPFs can be accurately determined from absorption spectra using standardized calculations based on the erythemal action spectrum, and such predicted SPFs correlate very well with in vivo determined SPFs. Corresponding algorithms for calculating SPF values are known in the art and corresponding computer programs are available; see, for example, http://www.sunscreensimulator.basf.com/Sunscreen_Simulator. Using the absorption spectrum shown in FIG. 2, the predicted SPF of a composition containing the deprotonated form of Padimate-O is approximately 10-fold higher than that of a composition containing the protonated form. With Benzophenone-4 (FIG. 1), the protonated form provides a composition having approximately 3 times the SPF as a composition containing the deprotonated form.

[3] = excited state after light absorption; cited from earlier work
[4] = cited from earlier work

- effect of protonation state on UV absorption [1]: largely inactive in its protonated form
SMILES: CCCCCCOC(=O)c1ccccc1C(=O)c1ccc(N(CC)CC)cc1O [2-(4-diethylamino-2-hydroxybenzoyl)-benzoic acid hexylester]

SMILES: COc1cc(O)c(C(=O)c2ccccc2)cc1S(=O)(=O)O [Benzophenone-4]
- SPF of composition with protonated form relative to deprotonated form ([2]; from absorption spectra of FIG. 1 (ethanol/water, pH 5 to 12)): approximately 3 times
- effect of protonation state on UV absorption [1]: protonated state being the from that absorbs more UVB radiation

SMILES: Oc1cccc2ccccc12 [Example 1-naphthol, 1-naphthol]
- pKa in the excited state [3]: 0.4

- effect of protonation state on UV absorption [1]: absorbs less UV radiation
SMILES: Nc1ccc(C(=O)O)cc1 [PABA, p-aminobenzoic acid]

SMILES: CCCCC(CC)COC(=O)c1ccc(N(C)C)cc1 (stereo not drawn) [Padimate-O, Ethylhexyl Dimethyl PABA]
- predicted SPF of composition with deprotonated form relative to protonated form ([2]; from absorption spectrum of FIG. 2 (acetonitrile, before/after equimolar HCl)): approximately 10 fold
- effect of protonation state on UV absorption [1]: shifts the absorption maximum of padimate-O from the UVB region to UVC

SMILES: COc1ccc(C(=O)c2ccccc2)c(O)c1 [oxybenzone]
- oxybenzone degraded ([4]; irradiation of oxybenzone and titanium dioxide, after 20 min of UV exposure): about 70%
- oxybenzone degraded ([4]; solution containing oxybenzone alone, after 260 min): 50%
